The source of these data is paper PMC7368294 (Proceedings of the National Academy of Sciences of the …, 2020).

Structures are written as SMILES. pEC50: −log10 of the molar value.

Assay in all cases: cell-based
Set-up in all cases: species or system Xenopus laevis oocytes

Assay [1] addresses Amα1/Amα2/Amα8/Amβ1 nAChR (Apis mellifera, UniProt A0A7M7MMZ9+A0A8U0WQ70+A0A8U0WQC0+A0A8U0WQD1).
A further assay has as its target T1, Amα1/Amα8/Amβ1 nAChR (Apis mellifera, UniProt A0A7M7MMZ9+A0A8U0WQ70+A0A8U0WQC0).
T1 sequence (A0A7M7MMZ9 44-627): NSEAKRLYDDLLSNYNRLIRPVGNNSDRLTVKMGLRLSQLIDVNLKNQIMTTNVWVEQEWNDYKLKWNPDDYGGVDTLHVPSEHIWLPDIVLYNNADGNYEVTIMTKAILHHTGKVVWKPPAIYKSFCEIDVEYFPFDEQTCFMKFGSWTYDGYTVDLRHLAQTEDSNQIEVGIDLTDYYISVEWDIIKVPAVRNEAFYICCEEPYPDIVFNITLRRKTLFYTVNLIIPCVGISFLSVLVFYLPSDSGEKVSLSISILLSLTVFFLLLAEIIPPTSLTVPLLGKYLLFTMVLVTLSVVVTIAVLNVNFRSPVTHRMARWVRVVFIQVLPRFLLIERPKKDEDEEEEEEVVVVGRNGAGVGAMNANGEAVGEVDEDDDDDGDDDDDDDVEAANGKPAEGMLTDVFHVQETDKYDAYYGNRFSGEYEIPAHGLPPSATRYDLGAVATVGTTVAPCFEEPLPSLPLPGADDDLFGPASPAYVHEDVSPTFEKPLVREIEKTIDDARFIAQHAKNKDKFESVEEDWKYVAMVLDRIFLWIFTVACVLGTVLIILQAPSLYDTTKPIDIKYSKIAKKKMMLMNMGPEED
T1 sequence (A0A8U0WQ70 25-537): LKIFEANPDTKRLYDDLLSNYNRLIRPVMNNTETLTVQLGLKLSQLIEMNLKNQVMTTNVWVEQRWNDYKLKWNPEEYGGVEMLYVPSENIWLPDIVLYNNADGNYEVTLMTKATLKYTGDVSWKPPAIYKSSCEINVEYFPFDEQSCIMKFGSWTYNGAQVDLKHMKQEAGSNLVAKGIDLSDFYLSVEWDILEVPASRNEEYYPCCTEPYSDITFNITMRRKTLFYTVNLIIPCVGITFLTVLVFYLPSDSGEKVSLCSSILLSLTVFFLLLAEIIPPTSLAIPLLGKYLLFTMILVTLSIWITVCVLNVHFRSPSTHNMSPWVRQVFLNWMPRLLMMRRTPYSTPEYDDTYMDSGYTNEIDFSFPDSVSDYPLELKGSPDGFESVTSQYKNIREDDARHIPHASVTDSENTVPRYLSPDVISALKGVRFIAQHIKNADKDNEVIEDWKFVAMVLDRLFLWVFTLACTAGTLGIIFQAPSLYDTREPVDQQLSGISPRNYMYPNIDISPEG
T1 sequence (A0A8U0WQC0 25-520): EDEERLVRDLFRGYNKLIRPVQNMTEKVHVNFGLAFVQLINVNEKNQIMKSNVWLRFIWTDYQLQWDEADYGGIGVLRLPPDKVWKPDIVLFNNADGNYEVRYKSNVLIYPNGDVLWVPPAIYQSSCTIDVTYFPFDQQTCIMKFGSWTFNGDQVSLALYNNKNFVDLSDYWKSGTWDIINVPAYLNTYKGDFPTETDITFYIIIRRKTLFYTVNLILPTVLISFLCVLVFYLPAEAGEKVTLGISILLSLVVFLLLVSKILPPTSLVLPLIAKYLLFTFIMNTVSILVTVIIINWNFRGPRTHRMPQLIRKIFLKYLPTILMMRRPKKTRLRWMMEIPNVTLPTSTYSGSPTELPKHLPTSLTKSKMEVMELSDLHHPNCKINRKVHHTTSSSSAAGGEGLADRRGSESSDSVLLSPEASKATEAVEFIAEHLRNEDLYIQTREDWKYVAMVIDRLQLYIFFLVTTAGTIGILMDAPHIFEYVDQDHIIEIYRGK

The target of the next assay is T2, Btα1/Btα8/Btβ1 nAChR (Bombus terrestris, UniProt A0A9B0BGM1+A0A9B0F4H3+A0A9B2JDZ7).
T2 sequence (A0A9B0F4H3 44-615): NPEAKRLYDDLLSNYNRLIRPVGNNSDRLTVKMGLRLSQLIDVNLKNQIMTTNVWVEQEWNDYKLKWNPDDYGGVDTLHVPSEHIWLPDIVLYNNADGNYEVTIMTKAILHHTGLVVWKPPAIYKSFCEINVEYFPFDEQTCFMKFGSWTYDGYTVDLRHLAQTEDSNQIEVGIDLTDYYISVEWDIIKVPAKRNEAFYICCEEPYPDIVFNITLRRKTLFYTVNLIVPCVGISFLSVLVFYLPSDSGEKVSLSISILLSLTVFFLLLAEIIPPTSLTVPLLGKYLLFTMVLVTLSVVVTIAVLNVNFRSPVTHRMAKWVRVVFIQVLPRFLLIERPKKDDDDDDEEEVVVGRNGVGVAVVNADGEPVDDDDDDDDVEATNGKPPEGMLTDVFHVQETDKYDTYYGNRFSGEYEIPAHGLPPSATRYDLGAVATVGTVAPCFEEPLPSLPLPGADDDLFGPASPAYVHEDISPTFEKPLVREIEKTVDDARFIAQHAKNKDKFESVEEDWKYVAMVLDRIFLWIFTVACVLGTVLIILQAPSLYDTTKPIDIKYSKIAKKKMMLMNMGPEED
T2 sequence (A0A9B2JDZ7 22-535): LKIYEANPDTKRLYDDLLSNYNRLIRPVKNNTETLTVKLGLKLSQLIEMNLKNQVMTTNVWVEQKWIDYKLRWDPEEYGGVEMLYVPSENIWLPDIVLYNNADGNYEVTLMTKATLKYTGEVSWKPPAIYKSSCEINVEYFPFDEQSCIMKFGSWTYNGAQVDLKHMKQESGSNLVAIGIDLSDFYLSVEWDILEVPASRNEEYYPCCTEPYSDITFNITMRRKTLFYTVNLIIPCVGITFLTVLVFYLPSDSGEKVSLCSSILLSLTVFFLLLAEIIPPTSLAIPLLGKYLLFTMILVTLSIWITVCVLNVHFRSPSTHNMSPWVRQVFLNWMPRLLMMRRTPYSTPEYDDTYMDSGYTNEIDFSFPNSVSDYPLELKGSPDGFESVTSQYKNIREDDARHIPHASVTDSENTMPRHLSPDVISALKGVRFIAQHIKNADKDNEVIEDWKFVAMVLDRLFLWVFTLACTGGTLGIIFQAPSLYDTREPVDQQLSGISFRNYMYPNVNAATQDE
T2 sequence (A0A9B0BGM1 19-519): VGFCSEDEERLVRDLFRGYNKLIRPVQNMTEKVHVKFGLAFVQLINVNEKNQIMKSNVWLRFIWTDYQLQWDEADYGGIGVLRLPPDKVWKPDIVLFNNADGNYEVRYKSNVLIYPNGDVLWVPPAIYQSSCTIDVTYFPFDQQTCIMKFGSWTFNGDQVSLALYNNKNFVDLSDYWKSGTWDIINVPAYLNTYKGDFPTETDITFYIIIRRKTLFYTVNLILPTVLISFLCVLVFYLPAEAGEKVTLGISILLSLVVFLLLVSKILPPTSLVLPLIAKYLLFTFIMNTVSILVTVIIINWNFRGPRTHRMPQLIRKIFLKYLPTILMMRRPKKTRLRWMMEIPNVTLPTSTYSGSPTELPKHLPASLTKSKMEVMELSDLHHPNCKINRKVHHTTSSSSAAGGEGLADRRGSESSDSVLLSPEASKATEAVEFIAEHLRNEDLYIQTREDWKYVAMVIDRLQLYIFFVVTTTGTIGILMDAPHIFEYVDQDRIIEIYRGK

Assay [2] deals with Btα1/Btα2/Btα8/Btβ1 nAChR (Bombus terrestris, UniProt A0A9B0BGM1+A0A9B0F4H3+A0A9B2JDZ7+A0A9B2JMX7).
Sequence of Btα1/Btα2/Btα8/Btβ1 nAChR (A0A9B2JMX7 18-544, one chain of several): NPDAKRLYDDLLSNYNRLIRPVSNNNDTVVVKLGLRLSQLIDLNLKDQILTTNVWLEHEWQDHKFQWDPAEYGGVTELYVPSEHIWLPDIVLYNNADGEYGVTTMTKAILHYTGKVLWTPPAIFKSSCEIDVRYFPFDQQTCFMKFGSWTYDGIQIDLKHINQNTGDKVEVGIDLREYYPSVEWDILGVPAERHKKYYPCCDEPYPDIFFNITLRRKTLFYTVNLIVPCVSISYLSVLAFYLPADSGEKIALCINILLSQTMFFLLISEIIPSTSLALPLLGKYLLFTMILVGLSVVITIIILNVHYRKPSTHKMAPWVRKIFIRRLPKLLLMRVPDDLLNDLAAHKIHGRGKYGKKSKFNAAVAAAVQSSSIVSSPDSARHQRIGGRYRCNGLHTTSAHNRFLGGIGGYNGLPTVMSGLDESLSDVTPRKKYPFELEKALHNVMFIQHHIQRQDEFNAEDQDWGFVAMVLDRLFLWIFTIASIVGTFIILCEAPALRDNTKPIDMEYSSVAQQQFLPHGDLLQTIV

Sequence of Amα1/Amα2/Amα8/Amβ1 nAChR (A0A8U0WQD1 18-541, one chain of several): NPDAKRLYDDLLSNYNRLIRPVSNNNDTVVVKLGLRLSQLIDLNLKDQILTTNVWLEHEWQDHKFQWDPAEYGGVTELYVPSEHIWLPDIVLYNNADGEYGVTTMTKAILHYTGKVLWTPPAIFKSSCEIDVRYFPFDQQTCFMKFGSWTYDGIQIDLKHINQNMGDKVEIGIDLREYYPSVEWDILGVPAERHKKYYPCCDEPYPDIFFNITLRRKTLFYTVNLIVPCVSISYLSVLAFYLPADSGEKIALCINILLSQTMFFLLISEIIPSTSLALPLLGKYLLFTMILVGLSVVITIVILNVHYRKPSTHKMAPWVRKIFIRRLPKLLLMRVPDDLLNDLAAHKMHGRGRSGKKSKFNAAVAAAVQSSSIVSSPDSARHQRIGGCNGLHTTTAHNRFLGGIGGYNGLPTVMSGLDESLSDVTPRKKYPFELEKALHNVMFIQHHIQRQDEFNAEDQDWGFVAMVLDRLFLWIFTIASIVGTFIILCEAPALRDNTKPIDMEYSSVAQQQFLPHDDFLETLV

As for `CC(=O)OCC[N+](C)(C)C` [Acetylcholine], the pEC50 (as a rule, the negative decadic logarithm of the EC50, by convention in mol/L) in assay [1] is 5.72; at Amα1/Amα8/Amβ1 nAChR, 5.94; at Btα1/Btα8/Btβ1 nAChR, 5.80; in assay [2], 5.66.
